{"source": "paper PMC10857328", "about": "“Utilization of Biopolymer-Based Lutein Emulsion as an Effective Delivery System to Improve Lutein Bioavailability in Neonatal Rats” (Nutrients, 2024)", "key": {"[1]": {"assay": "Daily dosing study 1 (maternal purified diet with no lutein): serum and tissue lutein concentrations", "type": "in vivo, neonatal Sprague-Dawley rats", "settings": "for Lutein concentration, serum: 2 mg/kg daily oral P5-P18, sampled P19", "description": "Serum and tissue lutein concentration was determined using an ultra-performance liquid chromatography (UPLC) system (Waters, Milford, MA, USA) equipped with a photo-diode array detector (PDA)/MS/MS, according to our well-established methods with slight modification. As for the serum, 100 μL of the sample was incubated with 2 mL of 100% ethanol at room temperature for an hour for lipid extraction. For the tissues, ~0.1 g of the sample was weighed, homogenized, and incubated with 2 mL of 100% ethanol at room temperature for an hour. An amount of 1 mL of 5% (w/v) potassium hydroxide was added to the sample and incubated in a water bath at 60 °C for 45 min for saponification. Upon saponification, samples were allowed to cool for about 15 min, and then an addition of 4 mL of hexane containing 0.1% butylated hydroxytoluene (w/v) and 2 mL of deionized water was added. The mixture was vortexed for 20 s and centrifuged at 1600 rpm at 25 °C for 15 min. The upper layer was collected following centrifugation and dried under nitrogen at 37 °C. The dried sample was then rinsed twice with hexane, dried, and reconstituted with 100 µL of acetonitrile-methanol. The reconstituted sample was centrifuged for 2 min to remove any possible precipitation. For UPLC analysis, 10 µL of the sample was injected into the Waters Acquity UPLC HSS T3 column. Solvent A was acetonitrile: methanol (50:50, v/v), and solvent B was 100% isopropanol. The mobile phase was made up of solvent A and solvent B in a volume ratio of 95:5 (v/v). The flow rate was set as 0.5 mL/min, and the column temperature was maintained at 35 °C. The detection wavelength was set at 446 nm. Retinyl acetate (Sigma-Aldrich, St. Louis, MO, USA) was used as the internal standard. To determine the effects of daily consumption of CTA-stabilized lutein emulsion on tissue lutein status, two daily dosing studies were conducted. The procedures were approved by the Institutional Animal Care and Use Committee of the University of Alabama (Number: 21-02-4373, 4 February 2021). For daily dosing study 1 (Figure 1B), on P5, rat pups (n = 8–9/group) were randomly selected from the litters and received an oral dose of either free lutein (i.e., lutein ester dissolved in olive oil) or lutein emulsion both containing 2 mg/kg body weight of lutein. […] Dosing was repeated daily until P18. The dosage was determined from previous research in both rodent and human newborns and was also established as an Acceptable Daily Intake for lutein by the Joint Food and Agricultural Organization/World Health Organization. On P19, pups were euthanized. Rats are known to wean between P19 and P21 [47]. Blood from vena cava, liver, spleen, brain, eye, kidney, lung, white adipose tissue (WAT), and brown adipose tissue (BAT) were collected. Blood samples were centrifuged to obtain serum. Serum and collected tissues were frozen at −80 °C until analysis. Serum and tissue lutein concentrations were analyzed using the methods described in Section 2.3.2."}, "[2]": {"assay": "Daily dosing study 2 (maternal standard chow diet containing lutein): serum and tissue lutein concentrations", "type": "in vivo, neonatal Sprague-Dawley rats", "settings": "2 mg/kg daily oral P5-P18", "description": "Serum and tissue lutein concentration was determined using an ultra-performance liquid chromatography (UPLC) system (Waters, Milford, MA, USA) equipped with a photo-diode array detector (PDA)/MS/MS, according to our well-established methods with slight modification. As for the serum, 100 μL of the sample was incubated with 2 mL of 100% ethanol at room temperature for an hour for lipid extraction. For the tissues, ~0.1 g of the sample was weighed, homogenized, and incubated with 2 mL of 100% ethanol at room temperature for an hour. An amount of 1 mL of 5% (w/v) potassium hydroxide was added to the sample and incubated in a water bath at 60 °C for 45 min for saponification. Upon saponification, samples were allowed to cool for about 15 min, and then an addition of 4 mL of hexane containing 0.1% butylated hydroxytoluene (w/v) and 2 mL of deionized water was added. The mixture was vortexed for 20 s and centrifuged at 1600 rpm at 25 °C for 15 min. The upper layer was collected following centrifugation and dried under nitrogen at 37 °C. The dried sample was then rinsed twice with hexane, dried, and reconstituted with 100 µL of acetonitrile-methanol. The reconstituted sample was centrifuged for 2 min to remove any possible precipitation. For UPLC analysis, 10 µL of the sample was injected into the Waters Acquity UPLC HSS T3 column. Solvent A was acetonitrile: methanol (50:50, v/v), and solvent B was 100% isopropanol. The mobile phase was made up of solvent A and solvent B in a volume ratio of 95:5 (v/v). The flow rate was set as 0.5 mL/min, and the column temperature was maintained at 35 °C. The detection wavelength was set at 446 nm. Retinyl acetate (Sigma-Aldrich, St. Louis, MO, USA) was used as the internal standard. To mimic the human dietary intake of lutein, daily dosing study 2 was conducted (Figure 1C). In this study, maternal rats consumed a standard rodent chow diet containing lutein from ingredients (i.e., ground corn) during pregnancy and lactation (Figure S2). The study design was similar to that of daily dosing study 1, except that a negative control group, in which rat pups were given olive oil from P5 to P18, was included in this study. Serum and tissue lutein concentrations were analyzed using the methods described in Section 2.3.2."}, "[3]": {"settings": "2 mg/kg daily oral P5-P18, maternal purified diet with no lutein"}, "[4]": {"settings": "2 mg/kg daily oral P5-P18, maternal purified diet with no lutein, listed as free lutein"}, "[5]": {"settings": "daily dosing study 1 vs study 2"}, "[6]": {"settings": "maternal standard chow diet containing lutein"}, "[7]": {"settings": "maternal standard chow diet containing lutein, listed as free lutein"}}, "note": "Marks after values point to notes of the source that are not given here."}
{"substance": "Lutein ester [Free Lutein]", "values": [{"measurement": "Lutein concentration, serum", "setting": "[1]; maternal purified diet with no lutein", "value": "112.42 ± 34.60 ^a nmol/L"}, {"measurement": "Lutein concentration, serum", "setting": "[1]; maternal purified diet with no lutein, listed as free lutein", "value": "112.42 ± 34.60", "unit": "nmol/L"}, {"measurement": "Lutein concentration, BAT", "setting": "[1]; [3]", "value": "0.02 ± 0.002 ^a nmol/g"}, {"measurement": "Lutein concentration, WAT", "setting": "[1]; [3]", "value": "0.08 ± 0.04 ^a nmol/g"}, {"measurement": "Lutein concentration, brain", "setting": "[1]; [3]", "value": "0.04 ± 0.01 ^b nmol/g"}, {"measurement": "Lutein concentration, eye", "setting": "[1]; [3]", "value": "0.04 ± 0.01 ^a nmol/g"}, {"measurement": "Lutein concentration, kidney", "setting": "[1]; [3]", "value": "0.12± 0.04 ^b nmol/g"}, {"measurement": "Lutein concentration, liver", "setting": "[1]; [3]", "value": "2.52 ± 1.29 ^b nmol/g"}, {"measurement": "Lutein concentration, lung", "setting": "[1]; [3]", "value": "0.06 ± 0.01 ^a nmol/g"}, {"measurement": "Lutein concentration, spleen", "setting": "[1]; [3]", "value": "0.66 ± 0.18 ^a nmol/g"}, {"measurement": "Lutein concentration, BAT", "setting": "[1]; [4]", "value": "0.02 ± 0.002", "unit": "nmol/g"}, {"measurement": "Lutein concentration, brain", "setting": "[1]; [4]", "value": "0.04 ± 0.01", "unit": "nmol/g"}, {"measurement": "Lutein concentration, eye", "setting": "[1]; [4]", "value": "0.02 ± 0.007", "unit": "nmol/g"}, {"measurement": "Lutein concentration, kidney", "setting": "[1]; [4]", "value": "0.12 ± 0.04", "unit": "nmol/g"}, {"measurement": "Lutein concentration, liver", "setting": "[1]; [4]", "value": "2.52 ± 1.29", "unit": "nmol/g"}, {"measurement": "Lutein concentration, lung", "setting": "[1]; [4]", "value": "0.06 ± 0.01", "unit": "nmol/g"}, {"measurement": "Lutein concentration, spleen", "setting": "[1]; [4]", "value": "0.66 ± 0.18", "unit": "nmol/g"}, {"measurement": "Fold higher eye lutein concentration, no-lutein maternal diet vs diet containing lutein", "setting": "[1]; [5]", "value": 2.00, "unit": "fold"}, {"measurement": "Fold higher liver lutein concentration, no-lutein maternal diet vs diet containing lutein", "setting": "[1]; [5]", "value": 2.04, "unit": "fold"}, {"measurement": "Fold higher serum lutein concentration, no-lutein maternal diet vs diet containing lutein", "setting": "[1]; [5]", "value": 6.38, "unit": "fold"}, {"measurement": "Lutein concentration, BAT", "setting": "[2]; [6]", "value": "0.026 ± 0.014 ^a nmol/g"}, {"measurement": "Lutein concentration, WAT", "setting": "[2]; [6]", "value": "0.34 ± 0.23 ^a nmol/g"}, {"measurement": "Lutein concentration, brain", "setting": "[2]; [6]", "value": "0.06 ± 0.04 ^ab nmol/g"}, {"measurement": "Lutein concentration, eye", "setting": "[2]; [6]", "value": "0.01 ± 0.003 ^c nmol/g"}, {"measurement": "Lutein concentration, kidney", "setting": "[2]; [6]", "value": "0.12 ± 0.03 ^b nmol/g"}, {"measurement": "Lutein concentration, liver", "setting": "[2]; [6]", "value": "1.23 ± 0.38 ^bc nmol/g"}, {"measurement": "Lutein concentration, lung", "setting": "[2]; [6]", "value": "0.043 ± 0.007 ^a nmol/g"}, {"measurement": "Lutein concentration, serum", "setting": "[2]; [6]", "value": "17.6 ± 4.39", "unit": "nM"}, {"measurement": "Lutein concentration, spleen", "setting": "[2]; [6]", "value": "0.58 ± 0.29 ^b nmol/g"}, {"measurement": "Lutein concentration, serum", "setting": "[2]; maternal standard chow diet containing lutein (Table 4)", "value": "17.61 ± 4.39 ^b nmol/L"}, {"measurement": "Lutein concentration, BAT", "setting": "[2]; [7]", "value": "0.026 ± 0.014", "unit": "nmol/g"}, {"measurement": "Lutein concentration, WAT", "setting": "[2]; [7]", "value": "0.34 ± 0.23", "unit": "nmol/g"}, {"measurement": "Lutein concentration, brain", "setting": "[2]; [7]", "value": "0.06 ± 0.04", "unit": "nmol/g"}, {"measurement": "Lutein concentration, eye", "setting": "[2]; [7]", "value": "0.01 ± 0.003", "unit": "nmol/g"}, {"measurement": "Lutein concentration, kidney", "setting": "[2]; [7]", "value": "0.12 ± 0.03", "unit": "nmol/g"}, {"measurement": "Lutein concentration, liver", "setting": "[2]; [7]", "value": "1.23 ± 0.38", "unit": "nmol/g"}, {"measurement": "Lutein concentration, lung", "setting": "[2]; [7]", "value": "0.043 ± 0.007", "unit": "nmol/g"}]}
